Drawing on US20150246898A1, “METALLOENZYME INHIBITOR COMPOUNDS” (DOW AGROSCIENCES LLC, priority 2012, published 2015), this text covers pest or weed control and MIC for 30 compounds.

For orientation: MIC means the smallest concentration in the dilution series that meets the test's criterion for growth inhibition.

The subject of experiment [1] is Puccinia recondita tritici = Puccinia triticina (PUCCRT). As to the kind of experiment: Fungicidal activity vs. leaf rust on wheat plants (1-day protectant spray). The experiment is classed as in vivo. To be noted: wheat (variety Yuma) sprayed at 50 ppm, inoculated next day, disease severity evaluated 7-9 days later, read-out: Puccinia Rating (% Disease Control @ 50 ppm). An excerpt:
Each pot contained 3-8 seedlings. These plants were sprayed until wet with the formulated test compounds. The compounds were formulated at 50 ppm in 10 vol. % acetone plus 90 vol. % Triton X water (deionized water 99.99 wt %+0.01 wt % Triton X100), giving a “formulated test compound.” Formulated test compounds were applied to plants using a turn table sprayer fitted with two opposing air atomization nozzles which delivered approximately 1500 L/ha of spray volume. On the following day, the leaves were inoculated with an aqueous spore suspension of Puccinia recondita tritici and the plants were kept in high humidity overnight to permit spores to germinate and infect the leaf. The plants were then transferred to a greenhouse until disease developed on untreated control plants. Disease severity was evaluated 7-9 days later, depending on the speed of disease development. In each case of Table 3, the Puccinia rating scale is as follows: […]

Experiment [2] concerns Septoria tritici (ATCC 26517). The experiment can be described thus: Minimum Inhibitory Concentration (MIC) vs. Septoria tritici, CLSI-based microdilution. Format: cell-based. Conditions: Zymoseptoria tritici, ATCC26517, 168 h; MIC = 50% reduction in growth of S. tritici, 7 days at 22 °C, RPMI/MOPS, 1% DMSO; read-out: Septoria Rating (MIC). The protocol:
Compounds of the present disclosure were assessed for their ability to inhibit the growth of a common strain of the fungal plant pathogen Septoria tritici (ATCC 26517) using a procedure based on a Clinical and Laboratory Standards Institute (CLSI) microdilution assay protocol for filamentous fungi. Stock solutions of the test compounds and standards were prepared in DMSO at 6400 μg/mL. Each stock solution was used to prepare a 2-fold dilution series ranging from 16 to 0.016 μg/mL (total of 11 compound concentrations) in RPMI-1640 (Roswell Park Memorial Institute) medium containing 3-(N-morpholino)propanesulfonic acid (MOPS) buffer and 2% DMSO. A 100 μL aliquot of the dilutions was added to columns 1 (16 μg/mL compound) through 11 (0.016 μg/mL compound) of a 96-well microtiter plate. This format was replicated in a second row of the microtiter plate. Thus, each microtiter plate could include 11 concentrations of four test or control compounds replicated twice. A 100 μL aliquot of RPMI-1640/MOPS/2% DMSO medium was added to column 12 (no compound control) of the microtiter plate. A fresh culture of S. tritici was used to prepare a solution of approximately 5×10^4 colony-forming units per milliliter (cfu/mL) in RPMI/MOPS medium without DMSO. A 100 μL aliquot of this solution was added to all 96 wells in the microtiter plate. […] In each case of Table 3 the Septoria rating scale is as follows: […]
(Dilution methods test growth across graded concentrations, often in twofold steps.)

The structures appear in SMILES notation. Converted amounts (≈) assume the structure as drawn.

As for `OCC#Cc1ccc(C(F)(F)C(O)(c2cncnc2)c2ccc(F)cc2F)nc1` (racemic) [Example 8, 3-(6-(2-(2,4-difluorophenyl)-1,1-difluoro-2-hydroxy-2-(pyrimidin-5-yl)ethyl)pyridin-3-yl)prop-2-yn-1-ol], the pest or weed control at 50 ppm in experiment [1] lay within 80 to 100%. Further, the MIC in experiment [2] is 0.5 to 1.5 µg/mL (≈ 1.24 to 3.72 µM).

Regarding `OC(c1cncnc1)(c1ccc(F)cc1F)C(F)(F)c1ccc(OCc2ccc(Cl)cc2F)cn1` (racemic) [Example 10], in experiment [1], the pest or weed control at 50 ppm was 80 to 100%. Further, the MIC in experiment [2] is not above 0.5 µg/mL.

With `N#Cc1ccc(C#Cc2ccc(C(F)(F)C(O)(c3cncnc3)c3ccc(F)cc3F)nc2)cc1F` (racemic) [Example 11], the pest or weed control at 50 ppm in experiment [1] was in the range of 80 to 100%. Also, in experiment [2], the MIC was not above 0.5 µg/mL.

Turning to `N#Cc1ccc(C#Cc2ccc(C(F)(F)C(O)(c3cncnc3)c3ccc(F)cc3F)nc2)c(F)c1` (racemic) [Example 12, 4-((6-(2-(2,4-Difluorophenyl)-1,1-difluoro-2-hydroxy-2-(pyrimidin-5-yl)ethyl)pyridin-3-yl)ethynyl)-3-fluorobenzonitrile], in experiment [1], the pest or weed control at 50 ppm was in the range of 80 to 100%. Besides, the MIC in experiment [2] is not above 0.5 µg/mL.

In the case of `OC(c1cncnc1)(c1ccc(F)cc1F)C(F)(F)c1ccc(C#Cc2ccc(Cl)cc2)cn1` (racemic) [Example 13], in experiment [1], the pest or weed control at 50 ppm lay within 80 to 100%. In addition, the MIC in experiment [2] was not above 0.5 µg/mL.

For the compound `OC(c1cncnc1)(c1ccc(F)cc1F)C(F)(F)c1ccc(C#Cc2ccc(OC(F)(F)F)cc2)cn1` (racemic) [Example 14], the pest or weed control at 50 ppm in experiment [1] fell in the range of 80 to 100%. The MIC in experiment [2] was not above 0.5 µg/mL.

As to `COc1ccc(C#Cc2ccc(C(F)(F)C(O)(c3cncnc3)c3ccc(F)cc3F)nc2)cc1` (racemic) [Example 15], the pest or weed control at 50 ppm in experiment [1] was in the range of 60 to 79%. In addition, the MIC in experiment [2] is not above 0.5 µg/mL.

On to `O=[N+]([O-])c1ccc(C#Cc2ccc(C(F)(F)C(O)(c3cncnc3)c3ccc(F)cc3F)nc2)cc1` (racemic) [Example 16, 1-(2,4-Difluorophenyl)-2,2-difluoro-2-(5-((4-nitrophenyl)ethynyl)pyridin-2-yl)-1-(pyrimidin-5-yl)ethanol], for which the pest or weed control at 50 ppm in experiment [1] lay in the range of 60 to 79%. The MIC in experiment [2] is not above 0.5 µg/mL.

For `N#Cc1cccc(C#Cc2ccc(C(F)(F)C(O)(c3cncnc3)c3ccc(F)cc3F)nc2)c1` (racemic) [Example 18, 3-((6-(2-(2,4-Difluorophenyl)-1,1-difluoro-2-hydroxy-2-(pyrimidin-5-yl)ethyl)pyridin-3-yl)ethynyl)benzonitrile], the pest or weed control at 50 ppm in experiment [1] lay in the range of 80 to 100%. For the same compound, in experiment [2], the MIC is not above 0.5 µg/mL.

As for `Nc1ccc(C#Cc2ccc(C(F)(F)C(O)(c3cncnc3)c3ccc(F)cc3F)nc2)cc1` (racemic) [Example 20, 2-(5-((4-Aminophenyl)ethynyl)pyridin-2-yl)-1-(2,4-difluorophenyl)-2,2-difluoro-1-(pyrimidin-5-yl)ethanol], the pest or weed control at 50 ppm in experiment [1] fell in the range of 60 to 79%. For the same compound, the MIC in experiment [2] was not above 0.5 µg/mL.

With `OC(c1cncnc1)(c1ccc(F)cc1F)C(F)(F)c1ccc(C#Cc2ccc(OC(F)F)cc2)cn1` (racemic) [Example 21, 2-(5-((4-(Difluoromethoxy)phenyl)ethynyl)pyridin-2-yl)-1-(2,4-difluorophenyl)-2,2-difluoro-1-(pyrimidin-5-yl)ethanol], in experiment [1], the pest or weed control at 50 ppm was in the range of 80 to 100%. The MIC in experiment [2] is not above 0.5 µg/mL.

With `OC(c1nc[nH]n1)(c1ccc(F)cc1F)C(F)(F)c1ccc(C#Cc2ccc(F)cc2)cn1` (racemic) [Example 27], in experiment [1], the pest or weed control at 50 ppm is less than 40%. The MIC in experiment [2] was more than 4 µg/mL.

`OC(c1cncnc1)(c1ccc(F)cc1F)C(F)(F)c1ccc(OCC(F)(F)F)cn1` (racemic) [Example 34]: the pest or weed control at 50 ppm in experiment [1] is 80 to 100%. Moreover, the MIC in experiment [2] was in the range of 0.5 to 1.5 µg/mL (≈ 1.12 to 3.35 µM).

As for `CC(C)C(O)(c1cncnc1)C(F)(F)c1ccc(C#Cc2ccc(C#N)cc2)cn1` (racemic) [Example 35], in experiment [1], the pest or weed control at 50 ppm is less than 40%. Besides, the minimum inhibitory concentration (MIC) in experiment [2] lay in the range of 0.5 to 1.5 µg/mL (≈ 1.24 to 3.71 µM).

On to `N#Cc1ccc(C#Cc2ccc(C(F)(F)C(O)(c3cncnc3)c3ccc(F)cc3F)nc2)s1` (racemic) [Example 37], for which the pest or weed control at 50 ppm in experiment [1] is 60 to 79%. Also, the MIC in experiment [2] was not above 0.5 µg/mL.

With `O=C(Nc1ccc(C#Cc2ccc(C(F)(F)C(O)(c3cncnc3)c3ccc(F)cc3F)nc2)cc1)C(F)(F)F` (racemic) [Example 38], in experiment [1], the pest or weed control at 50 ppm is less than 40%. For the same compound, the MIC in experiment [2] was 0.5 to 1.5 µg/mL (≈ 0.892 to 2.68 µM).

Regarding `OC(c1cncnc1)(c1ccc(F)cc1F)C(F)(F)c1ccc(OCc2ccc(Cl)cc2)cn1` (racemic) [Example 41], the pest or weed control at 50 ppm in experiment [1] was 80 to 100%. Also, the MIC in experiment [2] is not above 0.5 µg/mL.

On to `COc1ccc(Oc2ccc(C(F)(F)C(O)(c3cncnc3)c3ccc(F)cc3F)nc2)cc1` (racemic) [Example 42], for which, in experiment [1], the pest or weed control at 50 ppm is 80 to 100%. Further, the MIC in experiment [2] was 0.5 to 1.5 µg/mL (≈ 1.06 to 3.18 µM).

Consider `N#Cc1ccc(C#Cc2ccc(C(F)(F)C(O)(c3ccc(Cl)cc3)c3cncnc3)nc2)cc1` (racemic) [Example 43], for which the pest or weed control at 50 ppm in experiment [1] was in the range of 60 to 79%. The MIC in experiment [2] was not above 0.5 µg/mL.

On to `OC(c1cncnc1)(c1ccc(F)cc1F)C(F)(F)c1ccc(Oc2cccc(Cl)c2)cn1` (racemic) [Example 47], for which, in experiment [1], the pest or weed control at 50 ppm lay in the range of 80 to 100%. For the same compound, in experiment [2], the MIC was 0.5 to 1.5 µg/mL (≈ 1.05 to 3.15 µM).

As to `CC(C)(C)C(O)(c1cncnc1)C(F)(F)c1ccc(C#Cc2ccc(F)cc2)cn1` (racemic) [Example 48], the pest or weed control at 50 ppm in experiment [1] is less than 40%. Besides, the MIC in experiment [2] was not above 0.5 µg/mL.

For the compound `OC(c1cncnc1)(c1ccc(F)cc1F)C(F)(F)c1ccc(OCc2ccc(Cl)c(F)c2)cn1` (racemic) [Example 51], the pest or weed control at 50 ppm in experiment [1] lay within 60 to 79%. Further, the MIC in experiment [2] is 0.5 to 1.5 µg/mL (≈ 0.985 to 2.95 µM).

As for `Nc1ccc(C#Cc2ccc(C(F)(F)C(O)(c3ccc(Cl)cc3)c3cncnc3)nc2)cc1` (racemic) [Example 55], the pest or weed control at 50 ppm in experiment [1] was less than 40%. The MIC in experiment [2] lay within 0.5 to 1.5 µg/mL (≈ 1.08 to 3.24 µM).

`OC(c1cncnc1)(c1ccc(F)cc1F)C(F)(F)c1ccc(OCc2ccc(F)c(F)c2)cn1` (racemic) [Example 60]: the pest or weed control at 50 ppm in experiment [1] lay in the range of 60 to 79%. Also, the MIC in experiment [2] was 0.5 to 1.5 µg/mL (≈ 1.02 to 3.05 µM).

For the compound `CC(C)(C)C(O)(c1cncnc1)C(F)(F)c1ccc(C#Cc2ccc(Cl)cc2)cn1` (racemic) [Example 62], in experiment [1], the pest or weed control at 50 ppm is less than 40%. Further, in experiment [2], the MIC is not above 0.5 µg/mL.

In the case of `CC(C)C(O)(c1cncnc1)C(F)(F)c1ccc(C#Cc2ccc(Cl)cc2)cn1` (racemic) [Example 64], the pest or weed control at 50 ppm in experiment [1] is less than 40%. In addition, the MIC in experiment [2] was not above 0.5 µg/mL.

As for `OC(c1cncnc1)(c1ccc(F)cc1F)C(F)(F)c1ccc(OCc2ccc(C(F)(F)F)cc2)cn1` (racemic) [Example 65], in experiment [1], the pest or weed control at 50 ppm was 80 to 100%. For the same compound, the MIC in experiment [2] is not above 0.5 µg/mL.

For `CC(C)C(O)(c1cncnc1)C(F)(F)c1ccc(C#Cc2cccc(C#N)c2)cn1` (racemic) [Example 67], in experiment [1], the pest or weed control at 50 ppm is less than 40%. The MIC in experiment [2] is not above 0.5 µg/mL.

On to `OC(c1cncnc1)(C1CC1)C(F)(F)c1ccc(C#Cc2ccc(F)cc2)cn1` (racemic) [Example 70, 1-Cyclopropyl-2,2-difluoro-2-(5-((4-fluorophenyl)ethynyl)pyridin-2-yl)-1-(pyrimidin-5-yl)ethanol], for which the pest or weed control at 50 ppm in experiment [1] lay in the range of 80 to 100%. Moreover, the MIC in experiment [2] is not above 0.5 µg/mL.

Regarding `OC(c1cncnc1)(c1ccc(F)cc1F)C(F)(F)c1ccc(OCc2ccc(Cl)c(Cl)c2)cn1` (stereo not drawn) [Example 52], the pest or weed control at 50 ppm in experiment [1] is 60 to 79%. Further, in experiment [2], the MIC is 0.5 to 1.5 µg/mL (≈ 0.954 to 2.86 µM).
